≈ marks a conversion by molar mass, not a printed value. Where two headings read alike, the source gives them in different places.
Columns and labels:
[1] = target: ETa (Homo sapiens (Human), UniProt P25101); assay: Calcium flux assay on ETa cell line; assay type: cell-based; settings: ETa/HEK293, calcium flux, endothelin-1 agonist
Protocol: Test materials: a) cell line: ETa/HEK293; b) vehicles: DMEM, Invitrogen (Cat #11960); Geneticin, Invitrogen (Cat #10131); c) reagent: Fluo-4 Direct, (Invitrogen, Cat #F10471); d) instruments: 384 well Poly-D-Lysine protein coating plate, Greiner #781946; Vi-cell XR Cell Viability Analyzer, Beckman Coulter; Incubator, Thermo.
For the employed agonist endothelin factor (endothelin-1, ET-1) master plate: the agonist was diluted from 50 μM to 15 μM with the test buffer solution.
For antagonist (BQ123, Am J Physiol. 1994 April; 266 (4 Pt 2): H1327-31.) plates and the compound plates: the antagonist and the tested compounds were diluted with DMSO at a gradient ratio of 1:4 to obtain 10 concentration points. Afterwards, 900 nL of each compound solution was transferred to the master plate and 30 μL of the test buffer solution was added. • a) The cell line was removed from the incubator, and 20 μL of 2X Fluo-4 Direct™ buffer solution was added gently by a pipette to a 384-well cell culture plate. • b) The cell plate was incubated at 37° C. for 50 min in the environment of 5% CO2, and then incubated at room temperature for 10 min. • c) The cell plate was removed from the incubator and placed in FLIPR. The compound plates and the tip box were placed in FLIPR. • d) Regarding the EC80 plate: • 1) Operations were conducted on […]. • 2) 10 μL of compound solution was transferred from the EC80 master plate to the cell plate. • 3) Fluorescence signals were read. • 4) The read signals were counted, and the EC80 value of each cell line was calculated using FLIPR. • 5) For the concentration of the compound plate, a solution having a concentration 6 times that of the reference agonist EC80 was formulated. • e) Regarding the compound plate: • 1) Operations were conducted on […]. • 2) 10 μL of compound was transferred to the cell plate. • 3) Fluorescence signals were read. • 4) 10 μL of solution having a concentration 6 times that of the reference agonist EC80 was transferred to the cell plate. • 5) Fluorescence signals were read. • f) Data analysis by Prism

[2] = Experiment on water solubility (HPLC-UV); assay type: physicochemical
Protocol: The detection was carried out in accordance with the high performance liquid chromatography (General Principles 0512 of Chinese Pharmacopoeia Volume IV (2020)):
Chromatographic conditions for the HPLC-UV method: mobile phase: 0.02 M KH2PO4 aqueous solution-acetonitrile (90:10), gradient elution; chromatographic column: C18; detection wavelength: 210 nm. The water solubility was calculated based on the peak area by the external standard method.

[3] = target: CYP1A2 (Homo sapiens (Human), UniProt P05177); assay: Inhibition of cytochrome P450 isozyme CYP1A2; assay type: in vitro ADME; settings: for IC50: recombinant enzyme
Chain of CYP1A2 (P05177 whole entry): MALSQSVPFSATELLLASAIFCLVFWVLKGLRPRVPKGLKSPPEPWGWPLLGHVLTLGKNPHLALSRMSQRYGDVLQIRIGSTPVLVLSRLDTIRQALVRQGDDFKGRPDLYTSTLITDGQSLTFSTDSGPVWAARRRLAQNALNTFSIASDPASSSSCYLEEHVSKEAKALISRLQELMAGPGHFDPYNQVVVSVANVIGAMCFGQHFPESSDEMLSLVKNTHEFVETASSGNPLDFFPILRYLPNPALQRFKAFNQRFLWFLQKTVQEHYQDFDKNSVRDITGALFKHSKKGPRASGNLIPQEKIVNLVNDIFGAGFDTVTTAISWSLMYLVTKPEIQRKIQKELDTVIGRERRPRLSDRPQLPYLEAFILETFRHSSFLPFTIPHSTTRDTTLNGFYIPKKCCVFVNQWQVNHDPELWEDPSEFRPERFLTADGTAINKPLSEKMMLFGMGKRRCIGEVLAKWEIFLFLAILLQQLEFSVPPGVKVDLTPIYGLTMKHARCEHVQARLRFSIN
Protocol: (§1) A total of six specific probe substrates of six isozymes of CYPs, i.e., α-Naphthoflavone (CYP1A2), Sulphaphenazole (CYP2C9), Ticlopidine (CYP2C19), Quinidine (CYP2D6), Ketoconazole (CYP3A4), and Montelukast (CYP2C8) were co-incubated with recombinant hepatic drug enzymes CYP1A2, CYP2C9, CYP2C19, CYP2D6, CYP3A4, and CYP2C8 and test compounds, respectively. Nicotinamide adenine dinucleotide phosphate (NADP+), D-glucose-6-phosphate (G6P) and glucose-6-phosphate dehydrogenase (G6DHP) were added to start the reaction. At the end of the reaction, the corresponding half maximal inhibitory concentrations (IC50) were calculated by the fluorescence detection method (Ex490 nm/Em520 nm).

[4] = target: CYP2C9 (Homo sapiens (Human), UniProt P11712); assay: Inhibition of cytochrome P450 isozyme CYP2C9; assay type: in vitro ADME; settings: for IC50: recombinant enzyme
Chain of CYP2C9 (P11712 whole entry): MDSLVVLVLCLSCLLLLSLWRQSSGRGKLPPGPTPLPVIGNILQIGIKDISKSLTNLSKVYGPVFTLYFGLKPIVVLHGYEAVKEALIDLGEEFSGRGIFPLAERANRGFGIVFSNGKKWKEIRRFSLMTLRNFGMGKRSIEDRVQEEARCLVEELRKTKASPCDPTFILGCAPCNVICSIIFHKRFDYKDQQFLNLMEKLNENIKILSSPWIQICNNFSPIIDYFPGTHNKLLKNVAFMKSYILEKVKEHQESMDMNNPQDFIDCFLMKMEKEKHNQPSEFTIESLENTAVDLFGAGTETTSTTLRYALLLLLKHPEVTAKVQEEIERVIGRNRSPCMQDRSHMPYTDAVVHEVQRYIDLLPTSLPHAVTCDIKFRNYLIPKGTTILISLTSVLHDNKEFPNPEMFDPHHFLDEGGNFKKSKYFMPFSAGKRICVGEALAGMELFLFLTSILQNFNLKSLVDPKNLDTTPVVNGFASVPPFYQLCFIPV
Protocol: as §1

[5] = target: CYP2C19 (Homo sapiens (Human), UniProt P33261); assay: Inhibition of cytochrome P450 isozyme CYP2C19; assay type: in vitro ADME; settings: for IC50: recombinant enzyme
Chain of CYP2C19 (P33261 whole entry): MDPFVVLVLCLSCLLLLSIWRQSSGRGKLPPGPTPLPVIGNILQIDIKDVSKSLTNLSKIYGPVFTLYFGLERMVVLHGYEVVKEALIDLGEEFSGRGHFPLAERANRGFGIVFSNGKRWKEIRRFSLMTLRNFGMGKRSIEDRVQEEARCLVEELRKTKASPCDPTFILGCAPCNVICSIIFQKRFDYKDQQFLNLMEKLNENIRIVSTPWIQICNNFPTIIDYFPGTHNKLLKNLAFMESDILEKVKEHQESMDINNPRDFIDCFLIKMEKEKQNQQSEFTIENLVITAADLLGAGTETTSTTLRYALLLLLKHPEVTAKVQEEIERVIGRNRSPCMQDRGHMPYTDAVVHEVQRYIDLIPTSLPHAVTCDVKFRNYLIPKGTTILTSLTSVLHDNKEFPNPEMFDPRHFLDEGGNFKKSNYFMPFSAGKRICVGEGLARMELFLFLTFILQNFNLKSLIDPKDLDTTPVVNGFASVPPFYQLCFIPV
Protocol: as §1

[6] = target: CYP2D6 (Homo sapiens (Human), UniProt P10635); assay: Inhibition of cytochrome P450 isozyme CYP2D6; assay type: in vitro ADME; settings: for IC50: recombinant enzyme
Chain of CYP2D6 (P10635 whole entry): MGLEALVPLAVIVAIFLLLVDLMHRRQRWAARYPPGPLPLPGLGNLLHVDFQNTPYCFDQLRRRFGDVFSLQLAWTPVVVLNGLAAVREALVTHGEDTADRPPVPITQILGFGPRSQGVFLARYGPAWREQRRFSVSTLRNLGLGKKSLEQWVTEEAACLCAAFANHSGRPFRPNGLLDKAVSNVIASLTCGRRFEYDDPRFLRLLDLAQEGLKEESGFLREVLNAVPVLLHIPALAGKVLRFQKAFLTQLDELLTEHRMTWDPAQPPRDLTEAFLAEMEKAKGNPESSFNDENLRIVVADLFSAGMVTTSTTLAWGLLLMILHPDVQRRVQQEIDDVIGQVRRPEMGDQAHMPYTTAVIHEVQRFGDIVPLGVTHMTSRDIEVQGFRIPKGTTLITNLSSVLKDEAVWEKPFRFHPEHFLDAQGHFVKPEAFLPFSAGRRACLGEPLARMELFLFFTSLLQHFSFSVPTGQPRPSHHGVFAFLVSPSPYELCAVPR
Protocol: as §1

[7] = target: CYP3A4 (Homo sapiens (Human), UniProt P08684); assay: Inhibition of cytochrome P450 isozyme CYP3A4; assay type: in vitro ADME; settings: for IC50: recombinant enzyme
Chain of CYP3A4 (P08684 whole entry): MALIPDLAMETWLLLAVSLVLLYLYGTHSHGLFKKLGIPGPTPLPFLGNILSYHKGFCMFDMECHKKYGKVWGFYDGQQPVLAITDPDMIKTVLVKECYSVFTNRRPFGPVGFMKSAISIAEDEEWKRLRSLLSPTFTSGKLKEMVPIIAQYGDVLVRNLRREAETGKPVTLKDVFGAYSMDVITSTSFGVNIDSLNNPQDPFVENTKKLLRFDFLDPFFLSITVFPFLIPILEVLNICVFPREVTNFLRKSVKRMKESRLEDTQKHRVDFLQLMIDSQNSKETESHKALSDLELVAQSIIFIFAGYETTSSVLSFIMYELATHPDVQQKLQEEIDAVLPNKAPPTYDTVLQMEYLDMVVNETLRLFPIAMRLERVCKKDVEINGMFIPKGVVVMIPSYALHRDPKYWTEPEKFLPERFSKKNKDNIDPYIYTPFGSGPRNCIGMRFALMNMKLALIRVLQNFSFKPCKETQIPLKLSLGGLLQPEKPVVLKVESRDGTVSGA
Protocol: as §1

[8] = Pharmacokinetic test in rats; assay type: in vivo; settings: SD rats; for Bioavailability: PO 10 mg/kg vs IV 1 mg/kg; for in vivo exposure after oral administration (in words) / oral bioavailability versus reference compound (in words): oral gavage
Protocol: Experimental animal: SD rats, 6-8 weeks. Six animals were used for each example compound.
Drug solution formulation: all of the Experimental Example compounds were formulated into 1 mg/mL solution. The solution system was 5% DMSO+20% Solutol HS15+75%(20% HP—β-CD aqueous solution).
Grouping for administration: the first group was administered by oral gavage (PO, three SD rats, 10 mg/kg, fasted overnight before administration, and fed after 4 hours following the administration); and the second group was administered by intravenous injection in dorsum of foot (IV, three SD rats, 1 mg/kg, fed freely).
Blood sampling time and treatment method: Blood was collected via the jugular vein at the following 7 to 8 points in time: 0.083 (only in the intravenous injection group), 0.25, 0.5, 1, 2, 4, 8, and 24 hours. The blood samples were centrifuged (2000 g, 4° C., 5 min) to obtain plasma. The samples were stored at −70° C. before analysis.
Analytical instruments and conditions: LC-MS/MS-33 (Triple Quad 6500+); MS: positive, ESI; mobile phases: Mobile phase A: H2O-0.025% FA-1 mM NH4OAc, Mobile phase B: MeOH-0.025% FA-1 mM NH4OAc; flow rate: 0.60 mL/min; chromatographic column: ACQUITY UPLC-BEH C18 (2.1×50 mm, 1.7 μm); column temperature: 60° C.

[9] = read-out: IC50 activity against ETa (class)
[10] = fluorescence detection, read-out: IC50 CYP1A2
[11] = fluorescence detection, read-out: IC50 CYP2C9
[12] = fluorescence detection, read-out: IC50 CYP2C19
[13] = fluorescence detection, read-out: IC50 CYP2D6
[14] = fluorescence detection, read-out: IC50 CYP3A4

Chain of ETa (P25101 21-427): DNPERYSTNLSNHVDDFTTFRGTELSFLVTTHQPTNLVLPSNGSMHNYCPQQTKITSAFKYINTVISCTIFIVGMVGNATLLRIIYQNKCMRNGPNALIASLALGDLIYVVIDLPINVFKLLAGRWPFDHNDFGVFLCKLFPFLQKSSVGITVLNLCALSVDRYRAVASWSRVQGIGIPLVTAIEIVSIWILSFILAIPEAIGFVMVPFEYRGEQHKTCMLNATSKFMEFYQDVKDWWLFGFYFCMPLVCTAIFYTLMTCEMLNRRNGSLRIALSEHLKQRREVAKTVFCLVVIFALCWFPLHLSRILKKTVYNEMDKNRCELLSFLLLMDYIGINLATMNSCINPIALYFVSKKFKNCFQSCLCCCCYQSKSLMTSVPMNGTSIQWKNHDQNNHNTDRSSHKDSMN

Compound	IC50 [1, 9] [µM]	IC50 ([1]; read-out: IC50 against ETa) [µM]	Solubility FaSSGF (pH1.6) ([2]; FaSSGF (pH1.6)) [mg/mL]	Solubility FaSSIF (pH6.5) ([2]; FaSSIF (pH6.5)) [mg/mL]	Solubility FeSSIF (pH5.0) ([2]; FeSSIF (pH5.0)) [mg/mL]	Solubility pH7.4 ([2]; pH7.4) [mg/mL]	risk of inhibiting CYP1A2 activity (conclusion in words) ([3]; conclusion to Table 4)	IC50 [3, 10] [µM]	risk of inhibiting CYP2C9 activity (conclusion in words) ([4]; conclusion to Table 4)	IC50 [4, 11] [µM]	risk of inhibiting CYP2C19 activity (conclusion in words) ([5]; conclusion to Table 4)	IC50 [5, 12] [µM]	risk of inhibiting CYP2D6 activity (conclusion in words) ([6]; conclusion to Table 4)	IC50 [6, 13] [µM]	risk of inhibiting CYP3A4 activity (conclusion in words) ([7]; conclusion to Table 4)	IC50 [7, 14] [µM]	AUClast ([8]; PO 10 mg/kg) [ng·h/mL]	Cmax ([8]; PO 10 mg/kg) [ng/mL]	T1/2 ([8]; PO 10 mg/kg) [h]	Tmax ([8]; PO 10 mg/kg) [h]	other results
CCCCC1=N[C@@]2(CC3C[C@H]3C2)C(=O)N1Cc1ccc(-c2ccccc2S(=O)(=O)Nc2noc(C)c2Cl)c(COCC)c1 (stereo partly drawn) [Example 7]	0.01 to 0.1	0.0243	0.24	0.87	0.08	0.84	no risk of inhibiting	> 10	no risk of inhibiting	> 10	no risk of inhibiting	> 10	no risk of inhibiting	> 10	no risk of inhibiting	> 10	23530	3080	5.28	3.33	Bioavailability [8]: 43.4%; in vivo exposure after oral administration (in words) [8]: high in vivo exposure; oral bioavailability versus reference compound (in words) [8]: higher oral bioavailability
CCCCC1=N[C@@]2(CC3C[C@H]3C2)C(=O)N1Cc1ccc(-c2ccccc2S(=O)(=O)Nc2noc(C)c2C)c(COCC)c1 (stereo partly drawn) [Example 3]	0.01 to 0.1	0.0105	>1	0.19	0.06	0.82	–	–	–	–	–	–	–	–	–	–	24407	2993	7.00	2.17	risk of inhibiting CYP1A2 activity (conclusion in words) [3]: no risk of inhibiting; IC50 [3]: > 10 µM; risk of inhibiting CYP2C9 activity (conclusion in words) [4]: no risk of inhibiting; IC50 [4]: > 10 µM; risk of inhibiting CYP2C19 activity (conclusion in words) [5]: no risk of inhibiting; IC50 [5]: > 10 µM; risk of inhibiting CYP2D6 activity (conclusion in words) [6]: no risk of inhibiting; IC50 [6]: > 10 µM; risk of inhibiting CYP3A4 activity (conclusion in words) [7]: had an inhibitory effect; IC50 [7]: 1 to 10 µM; Bioavailability [8]: 69.3%; in vivo exposure after oral administration (in words) [8]: high in vivo exposure; oral bioavailability versus reference compound (in words) [8]: higher oral bioavailability
CCCCC1=NC2(CCCC2)C(=O)N1Cc1ccc(-c2ccccc2S(=O)(=O)Nc2noc(C)c2C)c(COCC)c1 [Sparsentan, reference compound]	–	0.0808	–	–	–	–	no risk of inhibiting	> 10	no risk of inhibiting	> 10	no risk of inhibiting	> 10	no risk of inhibiting	> 10	had an inhibitory effect	1 to 10	–	–	–	–	solubility ([2]; aqueous medium at pH 7.4 (buffer not named), pH 7.4, aqueous buffer, pH7.4, read-out: Solubility pH7.4): 210 µg/mL (≈ 354 µM); solubility ([2]; pH 1.6, fassgf or other biorelevant, FaSSGF (pH1.6), read-out: Solubility FaSSGF (pH1.6)): 130 µg/mL (≈ 219 µM); solubility ([2]; pH 5, FeSSIF (pH5.0), read-out: Solubility FeSSIF (pH5.0)): 20 µg/mL (≈ 33.7 µM); solubility ([2]; pH 6.5, FaSSIF (pH6.5), read-out: Solubility FaSSIF (pH6.5)): 80 µg/mL (≈ 135 µM); AUC(0-t) ([8]; rat, plasma, PO 10 mg/kg): 18600 ng·h/mL; half-life ([8]; rat, plasma, PO 10 mg/kg): 15.4 h; Bioavailability ([8]; rat, plasma, read-out: Bioavailability): 20.6%; Cmax ([8]; rat, plasma, PO 10 mg/kg, read-out: Cmax): 1800 ng/mL; Tmax ([8]; rat, plasma, PO 10 mg/kg, read-out: Tmax): 1.42 h

Source: US20240417395A1, “DUAL ANTAGONIST AND USE THEREOF” (NICOYA THERAPEUTICS (SHANGHAI) CO., LTD, priority 2021, published 2024)
